In article PMC12412615, “Tailored SirReal-type inhibitors enhance SIRT2 inhibition through ligand stabilization and disruption of NAD^+ co-factor binding” (RSC Medicinal Chemistry, 2025):

Legend:
[1] = biological target: T1, NanoLuc-SIRT2 fusion construct (Homo sapiens, UniProt Q8IXJ6); test: NanoBRET cellular target engagement assay in HEK293T cells; type: cell-based; settings: stable HEK293T cell line expressing NanoLuc-SIRT2; 2 μM tracer; 2 hours at 37 °C; read-out: NanoBRET EC50 (cellular SIRT2 target engagement)
T1 construct: HEK293T cells expressing the NanoLuc-tagged SIRT2(50-356) fusion protein were used; expressed in transfected cells; transient transfection for SH10
T1 sequence (Q8IXJ6 50-356): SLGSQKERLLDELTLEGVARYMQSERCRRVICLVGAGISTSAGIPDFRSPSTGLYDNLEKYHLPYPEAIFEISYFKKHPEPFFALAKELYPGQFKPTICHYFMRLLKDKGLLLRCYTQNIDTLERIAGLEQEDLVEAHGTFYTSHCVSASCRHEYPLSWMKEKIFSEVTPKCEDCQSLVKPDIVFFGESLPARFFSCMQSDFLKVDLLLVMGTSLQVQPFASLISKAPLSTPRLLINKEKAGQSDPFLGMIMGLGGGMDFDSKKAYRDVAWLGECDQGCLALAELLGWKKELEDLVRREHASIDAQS
Protocol: For the assay, cells were trypsinized, resuspended in Opti-MEM® reduced serum medium, and adjusted to a concentration of 2 × 10^5 cells per mL. […] Serially diluted inhibitor and tracer were added to the cell suspension, and 100 μL were seeded into 96-well white, sterile, nonbinding surface plates. […] For BRET measurements, NanoBRET NanoGlo Substrate (Promega cat. #N1571) was added to the wells according to the manufacturer's protocol. […] The BRET ratio was calculated as the ratio of acceptor to donor signal, and data were normalized to vehicle-treated controls. Apparent intracellular binding affinities (EC50 values) were determined by fitting dose–response curves using nonlinear regression analysis in GraphPad Prism.

SIRT2 = biological target: T2, SIRT2 (Homo sapiens, UniProt Q8IXJ6); test: Fluorescence-based SIRT2 deacetylation inhibition assay (Reaction Biology Corporation); type: biochemical; design: purchased Reaction Biology Corporation (Malvern, USA), contract assay
T2 sequence (Q8IXJ6 1-389): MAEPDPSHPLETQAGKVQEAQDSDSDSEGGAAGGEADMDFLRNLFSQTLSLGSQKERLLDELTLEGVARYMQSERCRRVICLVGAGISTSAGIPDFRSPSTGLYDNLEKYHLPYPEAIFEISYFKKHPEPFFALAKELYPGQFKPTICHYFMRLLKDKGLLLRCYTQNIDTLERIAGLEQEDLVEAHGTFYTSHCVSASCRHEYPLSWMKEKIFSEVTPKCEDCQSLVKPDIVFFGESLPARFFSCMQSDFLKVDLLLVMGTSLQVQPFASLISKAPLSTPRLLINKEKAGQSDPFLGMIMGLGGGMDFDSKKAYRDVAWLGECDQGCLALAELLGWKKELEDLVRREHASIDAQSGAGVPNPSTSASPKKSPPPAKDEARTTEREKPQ
Protocol: The determination of SIRT2 inhibitory activity was performed by Reaction Biology Corporation (Malvern, USA) with a fluorescence-based assay utilizing the fluorogenic peptide of p53 residues 379–382 (RHKK(Ac)-Fl). […]. […] […]. On the contrary, we observed a significant increase in potency by the introduction of halogens at the R^2 position (compounds 29–31), highlighting the importance of the position of the functional group modifications. […]. […] Additional factors such as the atomic radius and thus steric requirements of these halogens may also play a significant role in the increase in potency, where the smaller chlorine atom may experience less steric effects upon binding at the active site compared to the larger bromine and iodine atoms. […]. […] IC50 values against SIRT2 are given as mean with standard deviations (n = 3). Inhibition percentages at 50 μM for SIRT1, 3 and 5 are given as mean without standard deviations (n = 2)
The determination of inhibitory activity on the corresponding sirtuin enzymes was carried out based on a fluorescence-based assay commissioned by Reaction Biology Corporation (Malvern, USA) following an internal experimental protocol. Test substances were prepared in DMSO, delivered into the respective enzyme mixture (prepared with reaction buffer: Tris-HCl, pH = 8) and incubated for 10 minutes at 30 °C. Subsequently the substrate mixture (NAD^+ and a 7-amino-4-methylcoumarin-based fluorogenic peptide substrate) was added to initiate the deacetylation reaction. After 2 hours incubation at 30 °C, 2 mM nicotinamide (universal sirtuin inhibitor, to stop the reaction) and protease-based developer (to generate fluorescence by the cleavage of 7-amino-4-methylcoumarin) was added. At 30 °C 1 hour later, the respective fluorescence was measured (extinction/emission = 360 nm/460 nm). The inhibitory effect of the test compounds is indirectly proportional to the amount of converted fluorescent substrate standardized as 100% activity of the control without inhibitor. The test substances were tested in 10-dose IC50 triplicate mode, with 3-fold serial dilution starting at 50 μM final reaction concentration and if necessary, starting at 100 μM. For each serially diluted replicate of the triplicate, an IC50 value was determined by sigmoidal curve fitting, resulting in three IC50 values, from which the mean and corresponding standard deviation were subsequently calculated. Data processing was performed based on Prism 8.0.2 software (GraphPad Software, Boston, USA). Subtype selectivity on SIRT1, SIRT3 and SIRT5 was evaluated in a single dose duplicate mode at 50 μM final test compound concentration according to previous outlined internal protocol of Reaction Biology Corporation by determining the enzyme activity of the respective sirtuins in % (no inhibitor control as 100% activity).

Cc1cc(C)nc(SCC(=O)Nc2cccc(COc3ccc(NC(=O)c4cnn(C)c4)c(Cl)c3)c2)n1 [Compound 29, N-(2-Chloro-4-((3-(2-((4,6-dimethylpyrimidin-2-yl)thio)acetamido)benzyl)oxy)phenyl)-1-methyl-1H-pyrazole-4-carboxamide]
EC50 [1]: 0.015 µM | Fold increase in SIRT2 potency compared to lead structure (SIRT2; 29 vs 24a, 46 vs SirReal2): 3 fold | IC50 (SIRT2; fluorogenic peptide of p53 residues 379–382 (RHKK(Ac)-Fl), mean with standard deviation, n = 3): 26 ± 2 nM
